{
  "source": "patent US7253187B2",
  "about": "“Heterocyclic inhibitors of ERK2 and uses thereof” (Vertex Pharmaceuticals Incorporated, priority 2001, dated 2007)",
  "data": [
    {"target": "T1, GSK-3β (AA 1–420) (Homo sapiens, UniProt P49841)", "T1 construct": "GSK-3β (AA 1–420)", "T1 sequence (P49841 whole entry, species assumed, the tested form may be a part)": "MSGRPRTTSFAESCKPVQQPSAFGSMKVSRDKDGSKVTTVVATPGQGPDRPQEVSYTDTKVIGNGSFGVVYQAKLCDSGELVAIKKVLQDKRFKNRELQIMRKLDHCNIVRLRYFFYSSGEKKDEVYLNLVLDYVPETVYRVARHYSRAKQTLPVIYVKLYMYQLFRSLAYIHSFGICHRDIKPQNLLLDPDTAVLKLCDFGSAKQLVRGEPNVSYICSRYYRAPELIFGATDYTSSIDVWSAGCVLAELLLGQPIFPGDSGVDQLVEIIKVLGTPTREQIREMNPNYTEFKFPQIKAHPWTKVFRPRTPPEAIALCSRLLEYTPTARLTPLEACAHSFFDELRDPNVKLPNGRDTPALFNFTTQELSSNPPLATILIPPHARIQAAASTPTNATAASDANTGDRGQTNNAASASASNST", "experiment": "GSK-3 inhibition assay (coupled enzyme system)", "format": "biochemical", "conditions": "read-out: GSK3 Inhibitory Activity (Ki class)", "procedure": "Final substrate concentrations in the assay were 20 μM ATP (Sigma Chemicals, St Louis, Mo.) and 300 μM peptide (HSSPHQS(PO3H2)EDEEE, American Peptide, Sunnyvale, Calif.). Reactions were carried out at 30° C. and 20 nM GSK-3β. Final concentrations of the components of the coupled enzyme system were 2.5 mM phosphoenolpyruvate, 300 μM NADH, 30 μg/ml pyruvate kinase and 10 μg/ml lactate dehydrogenase.\nAn assay stock buffer solution was prepared containing all of the reagents listed above with the exception of ATP and the test compound of interest. The assay stock buffer'solution (175 μl) was incubated in a 96 well plate with 5 μl of the test compound of interest at final concentrations spanning 0.002 μM to 30 μM at 30° C. for 10 min. […] The reaction was initiated by the addition of 20 μl of ATP (final concentration 20 μM). Rates of reaction were obtained using a Molecular Devices Spectramax plate reader (Sunnyvale, Calif.) over 10 min at 30° C. The Ki values were determined from the rate data as a function of inhibitor concentration.\nThe compound numbers correspond to the compound numbers in Table 1.", "units": {"Ki": "nM"}, "values": [
      {"compound": "COc1cccc(Nc2ncc(C)c(-c3c[nH]c(C(=O)NC(CO)c4ccccc4)c3)n2)c1", "note": "(stereo not shown) [III-a-137, 4-[2-(3-Methoxy-phenylamino)-5-methyl-pyrimidin-4-yl]-1H-pyrrole-2-carboxylic acid (2-hydroxy-1-phenyl-ethyl)-amide]", "Ki": "< 100"}
    ]},
    {"target": "ERK2 (Homo sapiens, UniProt P28482)", "sequence (P28482 whole entry)": "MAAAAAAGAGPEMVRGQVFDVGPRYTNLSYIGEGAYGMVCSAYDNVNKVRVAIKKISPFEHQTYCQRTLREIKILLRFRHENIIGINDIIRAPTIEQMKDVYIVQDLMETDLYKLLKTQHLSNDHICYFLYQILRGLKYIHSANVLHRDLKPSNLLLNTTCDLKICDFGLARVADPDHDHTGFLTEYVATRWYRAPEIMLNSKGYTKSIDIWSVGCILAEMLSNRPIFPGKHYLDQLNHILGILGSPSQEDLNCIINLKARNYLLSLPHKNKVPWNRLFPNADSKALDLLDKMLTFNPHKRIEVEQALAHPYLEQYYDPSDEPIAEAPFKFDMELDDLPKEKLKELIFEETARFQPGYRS", "experiment": "ERK2 inhibition assay (spectrophotometric coupled-enzyme assay)", "format": "biochemical", "conditions": "ERK2 Inhibitory Activity (Ki class D-F)", "procedure": "(§1) The IC50 was evaluated from the rate data as a function of inhibitor concentration. […] The compound numbers correspond to the compound numbers in Table 1.", "units": {"Ki": "nM"}, "values": [
      {"compound": "Cc1cnc(Nc2nc(N3CCCCC3)nc3ccccc23)nc1-c1c[nH]c(C(=O)NCc2ccccc2)c1", "note": "[III-a-133, 4-[5-Methyl-2-(2-piperidin-1-yl-quinazolin-4-ylamino)-pyrimidin-4-yl]-1H-pyrrole-2-carboxylic acid benzylamide]", "Ki": "> 1000"}
    ]},
    {"target": "ERK2 (Homo sapiens, UniProt P28482)", "experiment": "ERK2 inhibition assay (spectrophotometric coupled-enzyme assay)", "format": "biochemical", "conditions": "read-out: ERK2 Inhibitory Activity (Ki class D-F)", "procedure": "as §1", "units": {"Ki": "nM"}, "values": [
      {"compound": "O=C(NCc1ccc2c(c1)OCO2)c1cc(-c2nc(Nc3ccccc3)ncc2-c2cc(Cl)cc(Cl)c2)c[nH]1", "note": "[III-a-103, 4-[5-(3,5-Dichloro-phenyl)-2-phenylamino-pyrimidin-4-yl]-1H-pyrrole-2-carboxylic acid (benzo[1,3]dioxol-5-ylmethyl)-amide]", "Ki": "> 1000"},
      {"compound": "Nc1ncc(-c2cc(F)cc(C(F)(F)F)c2)c(-c2c[nH]c(C(=O)NC(CO)c3ccccc3)c2)n1", "note": "(stereo not shown) [III-a-105, 4-[2-Amino-5-(3-fluoro-5-trifluoromethyl-phenyl)-pyrimidin-4-yl]-1H-pyrrole-2-carboxylic acid (2-hydroxy-1-phenyl-ethyl)-amide]", "Ki": "100 to 1000"},
      {"compound": "Cc1cnc(N)nc1-c1c[nH]c(C(=O)NCCc2cccnc2)c1", "note": "[III-a-107, 4-(2-Amino-5-methyl-pyrimidin-4-yl)-1H-pyrrole-2-carboxylic acid (2-pyridin-3′-yl-ethyl)-amide]", "Ki": "> 1000"},
      {"compound": "CCCNC(=O)c1cc(-c2nc(Nc3ccccc3)ncc2C)c[nH]1", "note": "[III-a-111, 4-(5-Methyl-2-phenylamino-pyrimidin-4-yl)-1H-pyrrole-2-carboxylic acid propylamide]", "Ki": "< 100"},
      {"compound": "Cc1cnc(Nc2ccccc2)nc1-c1c[nH]c(C(=O)NCCCc2ccccc2)c1", "note": "[III-a-112, 4-(5-Methyl-2-phenylamino-pyrimidin-4-yl)-1H-pyrrole-2-carboxylic acid (3-phenyl-propyl)-amide]", "Ki": "< 100"},
      {"compound": "CCNc1ncc(C)c(-c2c[nH]c(C(=O)NC3CC3)c2)n1", "note": "[III-a-114, 4-(2-Ethylamino-5-methyl-pyrimidin-4-yl)-1H-pyrrole-2-carboxylic acid cyclopropylamide]", "Ki": "> 1000"},
      {"compound": "Cc1cnc(Nc2ccccc2)nc1-c1c[nH]c(C(=O)NCCN)c1", "note": "[III-a-120, 4-(5-Methyl-2-phenylamino-pyrimidin-4-yl)-1H-pyrrole-2-carboxylic acid (2-amino-ethyl)-amide]", "Ki": "100 to 1000"},
      {"compound": "CCN(CC)CCNc1ncc(C)c(-c2c[nH]c(C(=O)NCc3ccc(F)c(F)c3)c2)n1", "note": "[III-a-132, 4-[2-(2-Diethylamino-ethylamino)-5-methyl-pyrimidin-4-yl]-1H-pyrrole-2-carboxylic acid 3i4-difluoro-benzylamide]", "Ki": "> 1000"},
      {"compound": "COCc1cnc(Nc2ccccc2)nc1-c1c[nH]c(C(=O)NC(CO)c2ccccc2)c1", "note": "(stereo not shown) [III-a-160, 4-(5-Methoxymethyl-2-phenylamino-pyrimidin-4-yl)-1H-pyrrole-2-carboxylic acid (2-hydroxy-1-phenyl-ethyl)-amide]", "Ki": "100 to 1000"},
      {"compound": "COCc1cnc(N)nc1-c1c[nH]c(C(=O)N[C@H](CO)c2ccccc2)c1", "note": "[III-a-161, 4-(2-Amino-5-methoxymethyl-pyrimidin-4-yl)-1H-pyrrole-2-carboxylic acid (2-hydroxy-1-phenyl-ethyl)-amide]", "Ki": "100 to 1000"},
      {"compound": "CCCNc1ncc(C)c(-c2c[nH]c(C(=O)NC(CO)c3ccccc3)c2)n1", "note": "(stereo not shown) [III-a-163, 4-(5-Methyl-2-propylamino-pyrimidin-4-yl)-1H-pyrrole-2-carboxylic acid (2-hydroxy-1-phenyl-ethyl)-amide]", "Ki": "< 100"},
      {"compound": "CCNc1ncc(C)c(-c2c[nH]c(C(=O)NC(C)C(O)c3ccccc3)c2)n1", "note": "(stereo not shown) [III-a-168, 4-(2-Ethylamino-5-methyl-pyrimidin-4-yl)-1H-pyrrole-2-carboxylic acid (2-hydroxy-1-methyl-2-phenyl-ethyl)-amide]", "Ki": "> 1000"},
      {"compound": "CCNc1ncc(C)c(-c2c[nH]c(C(=O)NCC(O)c3ccccc3)c2)n1", "note": "(stereo not shown) [III-a-169, 4-(2-Ethylamino-5-methyl-pyrimidin-4-yl)-1H-pyrrole-2-carboxylic acid (2-hydroxy-2-phenyl-ethyl)-amide]", "Ki": "100 to 1000"},
      {"compound": "CCNc1ncc(C)c(-c2c[nH]c(C(=O)NC(CO)C(O)c3ccccc3)c2)n1", "note": "(stereo not shown) [III-a-170, 4-(2-Ethylamino-5-methyl-pyrimidin-4-yl)-1H-pyrrole-2-carboxylic acid (2-hydroxy-1-hydroxymethyl-2-phenyl-ethyl)-amide]", "Ki": "> 1000"},
      {"compound": "CCNc1ncc(C)c(-c2c[nH]c(C(=O)NC(CO)C(O)c3ccccc3)c2)n1", "note": "(stereo not shown) [III-a-171, 4-(2-Ethylamino-5-methyl-pyrimidin-4-yl)-1H-pyrrole-2-carboxylic acid (2-hydroxy-1-hydroxymethyl-2-phenyl-ethyl)-amide]", "Ki": "> 1000"},
      {"compound": "CC(C(O)c1ccccc1)N(C)C(=O)c1cc(-c2ccnc(N)n2)c[nH]1", "note": "(stereo not shown) [III-a-180, 4-(2-Amino-pyrimidin-4-yl)-1H-pyrrole-2-carboxylic acid (2-hydroxy-1-methyl-2-phenyl-ethyl)-methyl-amide]", "Ki": "> 1000"},
      {"compound": "CCNc1ncc(C)c(-c2c[nH]c(C(=O)NC(CO)c3ccccc3F)c2)n1", "note": "(stereo not shown) [III-a-192, 4-(2-Ethylamino-5-methyl-pyrimidin-4-yl)-1H-pyrrole-2-carboxylic acid [1-(2-fluoro-phenyl)-2-hydroxy-ethyl]-amide]", "Ki": "100 to 1000"},
      {"compound": "CCONc1ncc(C)c(-c2c[nH]c(C(=O)N[C@H](CO)c3ccccc3)c2)n1", "note": "[III-a-195, 4-(2-Ethoxyamino-5-methyl-pyrimidin-4-yl)-1H-pyrrole-2-carboxylic acid (2-hydroxy-1-phenyl-ethyl)-amide]", "Ki": "< 100"},
      {"compound": "CCNc1ncc(C)c(-c2c[nH]c(C(=O)NC(C(C)=O)c3ccccc3)c2)n1", "note": "(stereo not shown) [III-a-197, 4-(2-Ethylamino-5-methyl-pyrimidin-4-yl)-1H-pyrrole-2-carboxylic acid (2-oxo-1-phenyl-propyl)-amide]", "Ki": "> 1000"},
      {"compound": "CCOC(=O)NNc1ncc(C)c(-c2c[nH]c(C(=O)N[C@H](CO)c3ccccc3)c2)n1", "note": "[III-a-218, N′-{4-[5-(2-Hydroxy-1-phenyl-ethylcarbamoyl)-1H-pyrrol-3-yl]-5-methyl-pyrimidin-2-yl}-hydrazinecarboxylic acid ethyl ester]", "Ki": "100 to 1000"},
      {"compound": "Cc1cnc(NCc2cccnc2)nc1-c1c[nH]c(C(=O)NC(CO)c2ccccc2)c1", "note": "(stereo not shown) [III-a-219, 4-{5-Methyl-2-[(pyridin-3-ylmethyl)-amino]-pyrimidin-4-yl}-1H-pyrrole-2-carboxylic acid (2-hydroxy-1-phenyl-ethyl)-amide]", "Ki": "< 100"},
      {"compound": "Cc1cnc(NOCC2CC2)nc1-c1c[nH]c(C(=O)NC(CO)c2ccccc2)c1", "note": "(stereo not shown) [III-a-220, 4-(2-Cyclopropylmethoxyamino-5-methyl-pyrimidin-4-yl)-1H-pyrrole-2-carboxylic acid (2-hydroxy-1-phenyl-ethyl)-amide]", "Ki": "< 100"},
      {"compound": "Cc1cnc(Nc2ccon2)nc1-c1c[nH]c(C(=O)NC(CO)c2ccccc2)c1", "note": "(stereo not shown) [III-a-221, 4-[2-(Isoxazol-3-ylamino)-5-methyl-pyrimidin-4-yl]-1H-pyrrole-2-carboxylic acid (2-hydroxy-1-phenyl-ethyl)-amide]", "Ki": "< 100"},
      {"compound": "Cc1cnc(NN(C)C)nc1-c1c[nH]c(C(=O)N[C@H](CO)c2ccccc2)c1", "note": "[III-a-226, 4-[2-(N′,N′-Dimethyl-hydrazino)-5-methyl-pyrimidin-4-yl]-1H-pyrrole-2-carboxylic acid (2-hydroxy-1-(S)-phenyl-ethyl)-amide]", "Ki": "< 100"},
      {"compound": "Cc1cc(Nc2ncc(C)c(-c3c[nH]c(C(=O)NC(CO)c4ccccc4)c3)n2)no1", "note": "(stereo not shown) [III-a-229, 4-[5-Methyl-2-(5-methyl-isoxazol-3-ylamino)-pyrimidin-4-yl]-1H-pyrrole-2-carboxylic acid (2-hydroxy-1-phenyl-ethyl)-amide]", "Ki": "100 to 1000"},
      {"compound": "CCC(CO)Nc1ncc(C)c(-c2c[nH]c(C(=O)NC(CO)c3cccc(C)c3)c2)n1", "note": "(stereo not shown) [III-a-234, 4-[2-(1-Hydroxymethyl-propylamino)-5-methyl-pyrimidin-4-yl]-1H-pyrrole-2-carboxylic acid (2-hydroxy-1-m-tolyl-ethyl)-amide]", "Ki": "< 100"},
      {"compound": "Cc1cnc(NC(CO)CO)nc1-c1c[nH]c(C(=O)NC(CO)c2ccccc2)c1", "note": "(stereo not shown) [III-a-235, 4-[2-(2-Hydroxy-1-hydroxymethyl-ethylamino)-5-methyl-pyrimidin-4-yl]-1H-pyrrole-2-carboxylic acid (2-hydroxy-1-phenyl-ethyl)-amide]", "Ki": "< 100"},
      {"compound": "CCC(CO)Nc1ncc(C)c(-c2c[nH]c(C(=O)NC(CO)c3ccccc3)c2)n1", "note": "(stereo not shown) [III-a-236, 4-[2-(1-Hydroxymethyl-propylamino)-5-methyl-pyrimidin-4-yl]-1H-pyrrole-2-carboxylic acid (2-hydroxy-1-phenyl-ethyl)-amide]", "Ki": "< 100"},
      {"compound": "Cc1cnc(NC2CC2C)nc1-c1c[nH]c(C(=O)NC(CO)c2ccccc2)c1", "note": "(stereo not shown) [III-a-237, 4-[5-Methyl-2-(2-methyl-cyclopropylamino)-pyrimidin-4-yl]-1H-pyrrole-2-carboxylic acid (2-hydroxy-1-phenyl-ethyl)-amide]", "Ki": "< 100"}
    ]}
  ]
}
